Experiments:
Assay type in all cases: biochemical
UGT71C1 = target: T1, UGT71C1 (Arabidopsis thaliana, UniProt O82381); assay: UGT71C1 glucosyltransferase specific activity towards phenolic compounds (reverse-phase HPLC); settings: 1 mM phenolic compound, 5 mM UDP-glucose, 50 mM TRIS-HCl pH 7.0, 30° C., 30 min; mean of three replicates ± standard deviation
T1 construct: GST (N); made in house; host or cells: E. coli
T1 sequence (O82381 1-481): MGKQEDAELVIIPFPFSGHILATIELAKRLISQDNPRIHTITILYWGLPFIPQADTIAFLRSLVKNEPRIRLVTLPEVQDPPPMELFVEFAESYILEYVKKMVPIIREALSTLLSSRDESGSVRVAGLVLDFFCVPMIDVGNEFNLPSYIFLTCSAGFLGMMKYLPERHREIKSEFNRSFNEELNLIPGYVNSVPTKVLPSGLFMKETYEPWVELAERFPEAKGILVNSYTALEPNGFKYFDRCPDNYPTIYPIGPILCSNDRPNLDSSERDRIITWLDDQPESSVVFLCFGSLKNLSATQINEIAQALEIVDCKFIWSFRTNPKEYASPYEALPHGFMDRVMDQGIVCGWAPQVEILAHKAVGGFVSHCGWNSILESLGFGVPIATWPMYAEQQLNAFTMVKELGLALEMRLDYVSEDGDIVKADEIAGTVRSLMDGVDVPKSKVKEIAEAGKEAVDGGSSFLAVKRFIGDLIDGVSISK

recombinant GTase A119 = target: T2, recombinant GTase A119 (Arabidopsis thaliana, UniProt Q9LVR1); assay: Specific activity of recombinant GTase producing O-glucosides against lignin precursors (HPLC); settings: 30° C.; ND = not detected
T2 construct: made in house; host or cells: E. coli
T2 sequence (Q9LVR1 1-481): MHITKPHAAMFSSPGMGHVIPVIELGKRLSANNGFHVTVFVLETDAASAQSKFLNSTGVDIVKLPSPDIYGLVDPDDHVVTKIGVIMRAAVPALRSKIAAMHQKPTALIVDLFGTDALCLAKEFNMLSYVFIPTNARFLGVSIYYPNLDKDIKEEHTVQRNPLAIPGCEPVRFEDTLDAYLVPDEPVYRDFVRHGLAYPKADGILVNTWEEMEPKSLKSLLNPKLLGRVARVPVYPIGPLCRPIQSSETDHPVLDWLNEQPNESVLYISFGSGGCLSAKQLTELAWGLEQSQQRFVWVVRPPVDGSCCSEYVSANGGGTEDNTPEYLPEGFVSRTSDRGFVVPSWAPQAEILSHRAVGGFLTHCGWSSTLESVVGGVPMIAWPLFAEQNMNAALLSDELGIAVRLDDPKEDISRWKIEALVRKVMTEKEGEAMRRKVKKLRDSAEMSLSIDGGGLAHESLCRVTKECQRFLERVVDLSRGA

recombinant GTase A062 = target: T3, recombinant GTase A062 (Arabidopsis thaliana, UniProt Q9LR44); assay: Specific activity of recombinant GTase producing glucose ester against lignin precursors (HPLC); settings: 0.5 ml of potential substrates, 5 mM UDPG, 0.2 μg GTase, 200 μl, 20° C., 30 min
T3 construct: made in house; host or cells: E. coli
T3 sequence (Q9LR44 1-469): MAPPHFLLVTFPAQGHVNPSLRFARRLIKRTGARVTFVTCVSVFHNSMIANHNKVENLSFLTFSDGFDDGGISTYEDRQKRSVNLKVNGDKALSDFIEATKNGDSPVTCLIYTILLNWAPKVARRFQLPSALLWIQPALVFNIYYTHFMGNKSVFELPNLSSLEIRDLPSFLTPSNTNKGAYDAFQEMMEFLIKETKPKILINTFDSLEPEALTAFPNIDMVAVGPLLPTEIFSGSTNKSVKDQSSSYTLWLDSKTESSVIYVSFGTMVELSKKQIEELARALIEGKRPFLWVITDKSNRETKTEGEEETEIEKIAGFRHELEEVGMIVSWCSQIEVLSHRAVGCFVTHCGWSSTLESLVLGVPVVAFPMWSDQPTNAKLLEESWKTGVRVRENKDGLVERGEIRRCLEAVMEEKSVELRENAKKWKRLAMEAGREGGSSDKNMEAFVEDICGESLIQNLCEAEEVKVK

recombinant GTase A911 = target: T4, recombinant GTase A911 (Arabidopsis thaliana, UniProt O22182); assay: as above; parameters: made in house; host or cells: E. coli; settings: 0.5 ml of potential substrates, 5 mM UDPG, 0.2 μg GTase, 200 μl, 20° C., 30 min
T4 sequence (O22182 1-456): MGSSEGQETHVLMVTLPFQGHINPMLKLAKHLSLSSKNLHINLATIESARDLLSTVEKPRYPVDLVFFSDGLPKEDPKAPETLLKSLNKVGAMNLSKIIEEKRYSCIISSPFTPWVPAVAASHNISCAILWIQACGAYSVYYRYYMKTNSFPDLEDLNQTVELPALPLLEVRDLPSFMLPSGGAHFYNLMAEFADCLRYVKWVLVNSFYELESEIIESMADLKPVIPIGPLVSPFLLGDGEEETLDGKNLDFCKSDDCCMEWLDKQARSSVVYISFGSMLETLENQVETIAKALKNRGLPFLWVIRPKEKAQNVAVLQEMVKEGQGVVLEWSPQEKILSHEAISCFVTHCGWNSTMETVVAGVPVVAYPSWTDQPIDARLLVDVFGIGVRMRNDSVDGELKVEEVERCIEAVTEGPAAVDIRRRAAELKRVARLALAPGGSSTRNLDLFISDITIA

recombinant GTase A407 = target: T5, recombinant GTase A407 (Arabidopsis thaliana, UniProt O81498); assay: Specific activity of recombinant GTase producing O-glucosides against lignin precursors (HPLC); settings: 30° C.; ND = not detected
T5 construct: made in house; host or cells: E. coli
T5 sequence (O81498 1-481): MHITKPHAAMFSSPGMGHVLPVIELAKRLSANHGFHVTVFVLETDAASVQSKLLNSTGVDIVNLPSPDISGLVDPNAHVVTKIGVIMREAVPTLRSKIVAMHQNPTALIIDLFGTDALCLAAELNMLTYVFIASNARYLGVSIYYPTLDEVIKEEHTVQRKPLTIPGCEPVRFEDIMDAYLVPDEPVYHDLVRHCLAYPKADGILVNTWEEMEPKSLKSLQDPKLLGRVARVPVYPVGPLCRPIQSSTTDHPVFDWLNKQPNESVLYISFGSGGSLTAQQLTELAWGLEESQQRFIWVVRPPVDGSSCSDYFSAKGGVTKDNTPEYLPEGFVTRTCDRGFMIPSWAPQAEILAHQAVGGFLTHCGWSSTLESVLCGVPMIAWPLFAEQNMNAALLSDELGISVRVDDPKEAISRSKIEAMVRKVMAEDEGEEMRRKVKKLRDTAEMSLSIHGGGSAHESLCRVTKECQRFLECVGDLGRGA

Structure (SMILES) | Specific activity (UGT71C1) (UGT71C1) | Specific activity of A119 (substrate converted to 4-O-glucoside) (recombinant GTase A119) | Specific activity of A062 (substrate converted to glucose ester) (recombinant GTase A062) | Specific activity of A911 (substrate converted to glucose ester) (recombinant GTase A911) | Specific activity of A407 (substrate converted to 4-O-glucoside) (recombinant GTase A407)
O=C(O)/C=C/c1ccc(O)cc1 [p-coumaric acid] | 0 nkat/mg | 0.02 nkat/mg | 2.54 nkat/mg | 4.31 nkat/mg | 0.01 nkat/mg
COc1cc(/C=C/C(=O)O)ccc1O [Ferulic acid, ferulic acid] | 0 nkat/mg | 14.48 nkat/mg | 0.08 nkat/mg | 2.88 nkat/mg | 0.25 nkat/mg
